# In ChEMBL document CHEMBL4842386, “Discovery of Reldesemtiv, a Fast Skeletal Muscle Troponin Activator for the Treatment of Impaired Muscle Function” (J Med Chem, 2021):
# Legend:
# Psoas muscle [1] = experiment: Increase in psoas muscle force in rabbit skinned single fiber preparation at a calcium concentration that produces a force increase that is 25% of the maximum response in a control preparation by skinned fast skeletal muscle fiber assay; format: functional; settings: Oryctolagus cuniculus
# Psoas muscle [2] = experiment: Activation of fast twitch skeletal muscle in rabbit psoas muscle myofibrils by measuring increase in myofibril ATPase activity at 25% calcium concentration; format: functional; settings: Oryctolagus cuniculus
# [3] = Metabolic stability in human liver microsomes assessed as intrinsic clearance measured after 90 mins by HPLC/MS/MS analysis; format: ADME, Microsome; settings: read-out: CLH
# [4] = target: T1, Nuclear receptor subfamily 1 group I member 2 (Homo sapiens, UniProt O75469); experiment: Transactivation of human PXR transfected in DPX2 cells assessed as CYP3A4 induction at 10 uM by luciferase reporter gene assay; format: ADME, cell-based; settings: dpx2, 10 µM
# T1 sequence (O75469 whole entry): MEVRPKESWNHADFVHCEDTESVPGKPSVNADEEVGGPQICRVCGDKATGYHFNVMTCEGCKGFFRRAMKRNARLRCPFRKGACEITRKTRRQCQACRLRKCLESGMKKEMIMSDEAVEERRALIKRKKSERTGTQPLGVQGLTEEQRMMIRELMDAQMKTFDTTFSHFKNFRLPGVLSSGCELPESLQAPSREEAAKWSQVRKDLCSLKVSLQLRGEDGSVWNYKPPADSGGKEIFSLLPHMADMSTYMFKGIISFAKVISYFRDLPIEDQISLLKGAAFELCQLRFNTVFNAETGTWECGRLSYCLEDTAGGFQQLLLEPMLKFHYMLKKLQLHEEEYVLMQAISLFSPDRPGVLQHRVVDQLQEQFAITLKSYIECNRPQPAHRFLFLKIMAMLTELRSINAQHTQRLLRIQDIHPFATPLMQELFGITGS
# hERG (KCNH2) = hERG (KCNH2) (Homo sapiens, UniProt Q12809); experiment: Displacement of [3H]astemizole from human ERG expressed in HEK293 cells at 100 uM relative to control; format: cell-based; settings: HEK293 cells that express hERG, probe [3H]astemizole
# Chain of hERG (KCNH2) (Q12809 whole entry): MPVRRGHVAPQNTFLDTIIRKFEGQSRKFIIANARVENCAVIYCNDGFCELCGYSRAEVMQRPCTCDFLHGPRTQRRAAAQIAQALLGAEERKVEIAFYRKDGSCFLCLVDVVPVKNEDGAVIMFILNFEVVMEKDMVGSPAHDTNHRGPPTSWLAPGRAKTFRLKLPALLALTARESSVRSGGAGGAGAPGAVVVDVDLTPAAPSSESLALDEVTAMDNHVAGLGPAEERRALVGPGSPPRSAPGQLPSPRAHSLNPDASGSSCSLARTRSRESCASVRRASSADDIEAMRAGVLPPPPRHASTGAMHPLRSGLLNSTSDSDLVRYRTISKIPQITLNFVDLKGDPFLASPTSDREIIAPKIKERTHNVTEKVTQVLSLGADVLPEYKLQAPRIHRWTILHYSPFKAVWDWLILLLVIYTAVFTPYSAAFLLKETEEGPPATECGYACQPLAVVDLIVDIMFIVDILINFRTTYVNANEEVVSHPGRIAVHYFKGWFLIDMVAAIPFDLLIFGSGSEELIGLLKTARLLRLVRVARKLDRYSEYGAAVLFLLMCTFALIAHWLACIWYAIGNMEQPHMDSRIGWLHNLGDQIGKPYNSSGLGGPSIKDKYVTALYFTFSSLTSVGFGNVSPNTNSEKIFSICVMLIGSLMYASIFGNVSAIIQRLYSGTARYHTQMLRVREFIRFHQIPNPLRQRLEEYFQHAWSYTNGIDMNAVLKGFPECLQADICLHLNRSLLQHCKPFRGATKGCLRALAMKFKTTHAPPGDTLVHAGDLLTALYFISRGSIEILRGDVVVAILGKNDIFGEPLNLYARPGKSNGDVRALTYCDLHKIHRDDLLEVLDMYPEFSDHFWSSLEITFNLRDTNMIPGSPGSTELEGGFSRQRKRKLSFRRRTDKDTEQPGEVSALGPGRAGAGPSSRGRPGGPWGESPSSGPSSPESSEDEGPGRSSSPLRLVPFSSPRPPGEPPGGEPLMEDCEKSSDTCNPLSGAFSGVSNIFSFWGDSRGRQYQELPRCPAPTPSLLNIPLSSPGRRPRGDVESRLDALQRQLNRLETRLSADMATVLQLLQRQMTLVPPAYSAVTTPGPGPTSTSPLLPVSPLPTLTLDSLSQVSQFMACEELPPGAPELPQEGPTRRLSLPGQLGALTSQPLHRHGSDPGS
# [5] = Intrinsic clearance in human hepatocytes; format: ADME, cell-based, Hepatocyte; settings: read-out: CLH
# [6] = system: Extensor digitorum longus; experiment: Increase in muscle tension in rat extensor digitorum longus muscle rat model assessed as free plasma concentration to increase muscle tension at subtetanic nerve stimulation rate of 30 Hz; format: functional, tissue-based
# [7] = Plasma protein binding in male rat assessed as unbound fraction; format: ADME, cell-free
# [8] = Drug distribution in Sprague-Dawley rat brain to blood ratio at 100 mg/kg, po by HPLC analysis; format: ADME, organism-based
# [9] = Drug distribution in Sprague-Dawley rat Soleus muscle to blood ratio at 100 mg/kg, po by HPLC analysis; format: ADME, organism-based
# [10] = Drug distribution in Sprague-Dawley rat extensor digitorum longus to blood ratio at 100 mg/kg, po by HPLC analysis; format: ADME, organism-based
# [11] = Drug distribution in Sprague-Dawley rat plasma to blood ratio at 100 mg/kg, po by HPLC analysis; format: ADME, organism-based; settings: in vivo
# [12] = Efflux ratio of apparent permeability in human Caco-2 cells; format: ADME, cell-based
# [13] = Clearance in male Sprague-Dawley rat at 3 mg/kg, po administered as single dose measured up to 24 hrs by HPLC analysis; format: ADME, organism-based; settings: in vivo
# [14] = Volume of distribution at steady state in male Sprague-Dawley rat at 3 mg/kg, po administered as single dose measured up to 24 hrs by HPLC analysis; format: ADME, organism-based; settings: in vivo
# [15] = Metabolic stability in male rat liver microsomes assessed as intrinsic clearance measured after 90 mins by HPLC/MS/MS analysis; format: ADME, Microsome; settings: read-out: CLH
# [16] = Intrinsic clearance in male rat hepatocytes; format: ADME, cell-based, Hepatocyte; settings: read-out: CLH
# [17] = Clearance in mouse at 3 mg/kg, po administered as single dose measured up to 24 hrs by HPLC analysis; format: ADME, organism-based; settings: in vivo
# [18] = Volume of distribution at steady state in mouse at 3 mg/kg, po administered as single dose measured up to 24 hrs by HPLC analysis; format: ADME, organism-based; settings: in vivo
# [19] = Oral bioavailability in mouse at 3 mg/kg administered as single dose measured up to 24 hrs by HPLC analysis; format: ADME, organism-based; settings: in vivo
# [20] = Clearance in female Sprague-Dawley rat at 3 mg/kg, po administered as single dose measured up to 24 hrs by HPLC analysis; format: ADME, organism-based; settings: in vivo
# [21] = Volume of distribution at steady state in female Sprague-Dawley rat at 3 mg/kg, po administered as single dose measured up to 24 hrs by HPLC analysis; format: ADME, organism-based; settings: in vivo
# [22] = Oral bioavailability in female Sprague-Dawley rat at 3 mg/kg administered as single dose measured up to 24 hrs by HPLC analysis; format: ADME, organism-based; settings: in vivo
# [23] = Metabolic stability in female rat liver microsomes assessed as intrinsic clearance measured after 90 mins by HPLC/MS/MS analysis; format: ADME, Microsome; settings: read-out: CLH
# [24] = Intrinsic clearance in female rat hepatocytes; format: ADME, cell-based, Hepatocyte; settings: read-out: CLH
# [25] = Plasma protein binding in female rat assessed as unbound fraction; format: ADME, cell-free
# [26] = Clearance in Beagle dog at 3 mg/kg, po administered as single dose measured up to 24 hrs by HPLC analysis; format: ADME, organism-based, Canis lupus familiaris; settings: in vivo
# [27] = Volume of distribution at steady state in Beagle dog at 3 mg/kg, po administered as single dose measured up to 24 hrs by HPLC analysis; format: ADME, organism-based, Canis lupus familiaris; settings: in vivo
# [28] = Oral bioavailability in Beagle dog at 3 mg/kg administered as single dose measured up to 24 hrs by HPLC analysis; format: ADME, organism-based, Canis lupus familiaris; settings: in vivo
# [29] = Plasma protein binding in dog assessed as unbound fraction; format: ADME, cell-free, Canis lupus familiaris
# [30] = Metabolic stability in dog liver microsomes assessed as intrinsic clearance measured after 90 mins by HPLC/MS/MS analysis; format: ADME, Canis lupus familiaris, Microsome; settings: read-out: CLH
# [31] = Intrinsic clearance in dog hepatocytes; format: ADME, cell-based, Canis lupus familiaris, Hepatocyte; settings: read-out: CLH
# [32] = Clearance in cynomolgus monkey at 3 mg/kg, po administered as single dose measured up to 24 hrs by HPLC analysis; format: ADME, organism-based, Macaca fascicularis; settings: in vivo
# [33] = Volume of distribution at steady state in cynomolgus monkey at 3 mg/kg, po administered as single dose measured up to 24 hrs by HPLC analysis; format: ADME, organism-based, Macaca fascicularis; settings: in vivo
# [34] = Oral bioavailability in cynomolgus monkey at 3 mg/kg administered as single dose measured up to 24 hrs by HPLC analysis; format: ADME, organism-based, Macaca fascicularis; settings: in vivo
# [35] = Plasma protein binding in monkey assessed as unbound fraction; format: ADME, cell-free, Macaca mulatta; settings: rhesus monkey
# [36] = Metabolic stability in monkey liver microsomes assessed as intrinsic clearance measured after 90 mins by HPLC/MS/MS analysis; format: ADME, Macaca mulatta, Microsome; settings: rhesus monkey, read-out: CLH
# [37] = Intrinsic clearance in monkey hepatocytes; format: ADME, cell-based, Macaca mulatta, Hepatocyte; settings: rhesus monkey, read-out: CLH
# [38] = Plasma protein binding in human assessed as unbound fraction; format: ADME, cell-free
compound,measurement,setting,value
NC(=O)c1ccn(-c2cnc(NC[C@]3(c4ncccc4F)C[C@H](F)C3)nc2)c1 [RELDESEMTIV],EC30,Psoas muscle [1],800 nM
same,EC40,Psoas muscle [2],600 nM
same,CLint scaled,[3],< 14 mL/min/kg
same,Activity,[4],18%
same,inhibition at 100 µM,hERG (KCNH2),33%
same,CLint scaled,[5],< 14 mL/min/kg
same,EC50,[6],38000 nM
same,fraction unbound,[7],0.5
same,Kp,[8],0.063
same,Kp,[9],0.77
same,Kp,[10],0.85
same,Ratio,[11],1
same,efflux ratio,[12],3.1
same,CL/F,[13],74 mL/min/kg
same,Vdss,[14],2.6 L/kg
same,CLint scaled,[15],15 mL/min/kg
same,CLint scaled,[16],56 mL/min/kg
same,CL/F,[17],86 mL/min/kg
same,Vdss,[18],3.3 L/kg
same,bioavailability,[19],47%
same,CL/F,[20],24 mL/min/kg
same,Vdss,[21],1.3 L/kg
same,bioavailability,[22],45%
same,CLint scaled,[23],15 mL/min/kg
same,CLint scaled,[24],217 mL/min/kg
same,fraction unbound,[25],0.5
same,CL/F,[26],22 mL/min/kg
same,Vdss,[27],1.9 L/kg
same,bioavailability,[28],25%
same,fraction unbound,[29],0.5
same,CLint scaled,[30],11 mL/min/kg
same,CLint scaled,[31],37 mL/min/kg
same,CL/F,[32],13 mL/min/kg
same,Vdss,[33],1.3 L/kg
same,bioavailability,[34],26%
same,fraction unbound,[35],0.49
same,CLint scaled,[36],18 mL/min/kg
same,CLint scaled,[37],23 mL/min/kg
same,fraction unbound,[38],0.49
